Measured values as given in patent US20040048791A1, “Method for treating neoplastic cells using cycloprodigiosin or salt thereof” (priority 2002, published 2004).
“Also recorded” adds a separate entry of the source. Counter-ions that a name gives are not always drawn.

Legend:
HeLa cells = assay: Cell viability by trypan blue dye exclusion assay; type: cell-based; settings: FIG. 1A
Protocol: Cell culture: HeLa cells were cultured in Dulbecco's modified Eagle's medium supplemented with 10% fetal bovine serum and 50 μg/ml kanamycin at 37° C. in 5% CO2 in air.
Assay for apoptotic processes: Cell viability was determined by dye exclusion assay using 0.1% trypan blue. DNA fragmentation was analyzed as described previously (Kawauchi, K. et al. (1997) Biochem. Biophys. Res. Commun. 237, 543-547). In the caspase-3 assay, cells were disrupted by freeze-thaw in an extraction buffer (50 mM Tris-HCl, pH7.4, 1 mM EGTA, 5 mM EDTA, 5 mM MgCl2, 1 mM APMSF, 10 μg/ml pepstatin, 10 μg/ml leupeptin, and 1 mM DTT). Then the suspension was centrifuged at 15,000 rpm for 20 min, and the supernatants obtained were incubated at 37° C. for 60 min in a reaction buffer (50 mM Tris-HCl, pH7.4, 1 mM EDTA, 10 mM EGTA) with 20 μM of the fluorogenic substrate DEVD-AFC (Peptide Institute, Inc., Japan). Cleavage of the substrates was quantified by measuring the fluorescence of 7-amino-4-trifluomethyl coumarin released using a spectrofluorometer (Shimadzu RF5000) with excitation at 380 mn and emission at 460 nm.

NF-κB [1] = assay: NF-κB luciferase gene reporter assay (pIG3Luc) in HeLa cells; type: cell-based
Excerpt: The plasmids, pRKF-IKKα and pRKHA-IKKβ have been described previously (Oka, S., Kamata, H., Kamata, K., Yagisawa, H. and Hirata, H. (2000) FEBS Lett., 472, 196-202). pRKF-IKKαEE and pRK-HA-IKKβEE encode constitutively active mutants of IKKα, in which 176 and 180 serine residues in an activation loop are replaced by glutamic acid residues, and IKKβ, in, which 177 and 181 serine residues are replaced by glutamic acid residues, respectively. A reporter plasmid pIG3Luc for NF-κB encodes triple NF-κB binding site sequences (AGCTTCAGAGGGGACTRANSCRIPTIONCCGAGAGG) (SEQ ID NO: 2) followed by the luciferase gene. A control plasmid, pBKRLuc, was obtained from Toyobo (Toyo B-Net Co., Japan). pcDNAF-MEKK1, pRKF-p65, pEFBOSHA-Rac1-DA, and pEFBOSHA-Cdc42-DA, are the expression plasmids for MEKK1, the NF-κB subunit p65, constitutively active Rac1 and Cdc42, respectively.
Luciferase gene reporter assay and Kinase assays of IKK: HeLa cells were transfected with the reporter plasmids described above using Lipofectin (GIBCO BRL). After 24-48 hr, the luciferase activity was determined using the Luciferase Assay System (Promega). The kinase activity of IKKα and IKKβ were analyzed by immune complex kinase assay as described previously (Oka, S., Kamata, H., Kamata, K., Yagisawa, H. and Hirata, H. (2000) FEBS Lett. 472, 196-202). The substrates was using GST-IκBα(1-55) or GST-p65(399-551).
The gene expression induction by NF-κB activation plays the most important role among “life” signals by TNFα. Therefore, the NF-κB reporter gene was introduced into the cells to analyze the effect of cPrG-HCl by luciferase assay.
NF-κB is translocated into the nucleus also by activation with low-molecular-weight G proteins Rac1 and Cdc42 or MEKK1 and induces gene expression. An activated Rac1, Cdc42 or MEKK1 expression plasmid was introduced together with the NF-κB reporter gene into cells and the effect of cPrG-HCl on NF-κB activation was measured by luciferase assay (FIG. 4A and FIG. 4B).

AP-1 = AP-1 luciferase reporter assay in various kinds of cells; type: cell-based, human; African green monkey; settings: all the cells tested: U373, 293, COS7, MKN45; FIGS. 6A to 6F
Protocol: In order to find out whether the suppression of NF-κB and AP-1 activation was specific to HeLa cells used above, analysis was made with various kind of cells. The cells used were U373 cells (human brain tumor cells), 293 cells (human embryo-derived kidney cells), COS7 cells (African green monkey kidney-derived cells), and MKN45 cells (human gastric tumor cells).
The NF-κB reporter plasmid pIG3Luc was incorporated into cells by transfection. After 24 hours, the cells were pretreated with cPrG-HCl at a specified concentration for 1 hour and then stimulated with TNFα (20 ng/ml) or PMA (1 μg/ml) for 4 hours, after which luciferase activity was measured. Each activity was corrected for the amount of protein.

IL-8 promoter = IL-8 promoter luciferase assay (pIL-8Luc) in HeLa cells; type: cell-based; settings: TNFα 20 ng/ml 4 hours, FIG. 7
Protocol: Now in order to analyze the effect of cPrG-HCl on IL-8 gene expression which is controlled by transcription factors such as NF-κB and AP-1, luciferase assay was carried out using a reporter plasmid (pIL-8Luc) in which the luciferase gene is bound downstream of the IL-8 promoter region. In the IL-8 promoter, NF-κB, AP-1, and NF-IL6 binding sequences are present.
The pIL-8Luc was incorporated into HeLa cells by transfection. After 24 hours, the cells were pretreated with cPrG-HCl at a specified concentration for 1 hour and then stimulated with TNFα (20 ng/ml) for 4 hours, after which luciferase activity was measured.

CRE binding factor = assay: CRE luciferase assay (pCRELuc) in COS-7 cells; type: cell-based, African green monkey; settings: PMA 1 μg/ml 4 hours, FIG. 8
Protocol: Here in order to analyze the effect of cPrG-HCl on the CRE binding factor, luciferase assay was carried out using a reporter plasmid (pCRELuc) in which the luciferase gene is linked downstream of the CRE sequence.
The pCRELuc was transfected in COS-7 cells. After 24 hours, the cells were pretreated with cPrG-HCl at a specified concentration for 1 hour and further stimulated with phorbol ester myristate acetate PMA (1 μg/ml) for 4 hours, after which luciferase activity was measured.

NF-κB [2] = settings: earlier abstract of the inventors (Kamata et al., 2000); cited from earlier work

COC1=CC(c2ccc[nH]2)=N/C1=C\c1[nH]c(C)c2c1C(C)CCC2 (stereo not drawn) [cPrG-HCl, Cycloprodigiosin hydrochloride]
cell viability (HeLa cells; cPrG-HCl present upon TNFα stimulation): about 65%
cell viability (HeLa cells; cPrG-HCl treatment alone): slightly decreased
NF-κB-dependent gene expression induced by IKKα (NF-κB [1]): Suppresses
NF-κB-dependent gene expression induced by IKKβ (NF-κB [1]): Suppresses
NF-κB-dependent gene expression induced by p65 (NF-κB [1]): Suppresses
PMA-induced activation of NF-κB (NF-κB [1]; FIG. 3A): Suppresses
TNFα-induced NF-κB activation (gene expression induction, luciferase) (NF-κB [1]; HeLa cells, FIG. 2A, 2C, hydrochloride): inhibited; also recorded: concentration-dependently suppressed
NF-κB activation induced by MEKK1 (NF-κB [1]; MEKK1 expression plasmid with reporter gene, FIG. 4): suppressed
NF-κB activation induced by Cdc42 (NF-κB [1]; activated Cdc42 expression plasmid with reporter gene, FIG. 4): suppressed
NF-κB activation induced by Rac1 (NF-κB [1]; activated Rac1 expression plasmid with reporter gene, FIG. 4): suppressed
TNFα-induced NF-κB activation (NF-κB [1]; in the presence of imidazole, FIG. 2C): suppressed
AP-1 transcriptional activation (AP-1): suppressed
IL-8 promoter-dependent transcriptional activity induced by TNFα (IL-8 promoter): markedly suppressed
PMA-induced CRE-dependent transcriptional activity (CRE binding factor): markedly suppressed
gene expression induction by NF-κB (NF-κB [2]): significantly suppressed
